Laboratory results published in PubChem BioAssay AID1963866 (Molecular Pharmacology Branch, DTP, NCI, 2024).
Where “and” joins values, the source holds several entries; their conditions need not be identical. Identical values can stand only once.

Tested on: PDC KRAS tumor spheroids with HUVEC/MSC, viability
Test: Anticancer human tumor 349418-098-R-PDC patient-derived lung adenocarcinoma cell line growth inhibition [KRAS2]
Conditions: for viability, T/C: stronger effect = lower value
From the text: Multicellular complex tumor spheroid response to RAS pathway inhibitors in combination with a targeted agents in patient-derived cell lines with oncogenic KRAS variants from multiple cancer types
A high-throughput screen of multi-cell type tumor spheroids was designed to identify active combinations of targeted small molecules and KRAS pathway inhibitors. Complex spheroids include a stromal component modeled by human endothelial cells (HUVEC) and fibroblasts modeled by human mesenchymal stem cells (MSCs). The concentration ranges selected for each drug and investigational agent were based upon clinically achievable concentrations if the clinical Cmax of the agent was known.
Compounds. The drugs and investigational agents: BI-3406 (NSC825286), BAY-293 (NSC824723), batoprotafib (TNO155; NSC825523), sotorasib (AMG 510; NSC818433), MRTX1257 (NSC819558), elimusertib (BAY 1895344; NSC800525), molibresib (GSK525762; NSC774829), temuterkib (LY3214996; NSC803410), venetoclax (NSC766270), alisertib (NSC759677), olaparib (NSC753686), talazoparib (NSC767125), erdafitinib (NSC781556), ipatasertib (NSC767898), cabozantinib (NSC761068), nintedanib (NSC756659), abemaciclib (NSC768073), docetaxel (NSC628503), trametinib (NSC758246), and sapanisertib (NSC764658) were obtained from the National Cancer Institute (NCI) Developmental Therapeutics Program Chemical Repository. The FDA-approved anticancer drug set is available from the Developmental Therapeutics Program. […] The stock solutions were prepared in dimethyl sulfoxide (DMSO, Sigma-Aldrich, St. Louis, MO, cat. D2650) at 800-fold the tested concentration and stored at -70 degrees C prior to their use. All drugs and investigational agents were tested over a range starting from a high concentration at or near the clinical Cmax and decreasing in half-log increments. If the clinical Cmax for an agent had not been determined, the highest concentration tested was 10 microM.
Cell Culture. All cells were maintained in an incubator at 37 degrees C and 5% CO2 with 95% humidity. The PDC lines were cultured according to standard operating procedures established by the NCI PDMR (https://pdmr.cancer.gov/sops/default.htm). Briefly, all PDCs were thawed and cultured in Matrigel-coated flasks prepared with a working solution of 1X Ham's F-12 nutrient mix, without supplementation (Invitrogen, Waltham, MA, cat. 11765054), 100 U/mL penicillin-streptomycin (Invitrogen, cat. 15140122), and 2.5% Matrigel (Corning Inc., Corning, NY, cat. 354248) for the first three passages. All PDCs were cultured in complete DMEM/F-12 media containing advanced DMEM/F-12 (Invitrogen, cat. 12634028), 4.9% defined fetal bovine serum, heat inactivated (HyClone Laboratories Inc., Logan, UT, cat. SH30070.03HI), 389 ng/mL hydrocortisone (Sigma-Aldrich, cat. H4001), 9.7 ng/mL human EGF recombinant protein (Invitrogen, cat. PHG0313), 23.4 microg/mL adenine (Sigma-Aldrich, cat. A2786), 97.3 U/mL penicillin-streptomycin (Invitrogen, cat. 15140122), 1.9 mM L-glutamine (Invitrogen, cat. 25030081), and 9.7 microM Y-27632 dihydrochloride (Tocris Bioscience, Bristol, United Kingdom, cat. 1254). The PDCs were cultured in complete DMEM/F12 media without 9.7 microM Y-27632 dihydrochloride for at least two passages prior to the screen. The established cell line HOP-62 was cultured in RPMI 1640 medium, HEPES (Invitrogen, cat. 22400105) with 10% defined fetal bovine serum (HyClone Laboratories Inc., cat. SH30070.03) and 2 mM L-glutamine (Invitrogen, cat. 25030081). The pooled donor HUVEC were cultured in endothelial cell growth medium 2 (PromoCell, Heidelberg, Germany, cat. C-22011) and the hMSC were cultured in mesenchymal stem cell growth medium 2 (PromoCell, cat. C-28009). For all experiments, HUVEC and hMSC were used at passages </=5, while the malignant cell lines were used at passages </=15. […]

[1] = compound alone, run of 07/19/2021
[2] = compound alone, run of 07/26/2021
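Further: spheroids exposed to compounds for seven days before readout.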

C=CC(=O)N1CCN(c2nc(=O)n(-c3c(C)ccnc3C(C)C)c3nc(-c4c(O)cccc4F)c(F)cc23)C(C)C1 (stereo not drawn)
viability, T/C (compound 10 µM): 37.2% [middle of 17 runs] | IC50 [1]: 5.54 µM [middle of 5 runs] | IC50 [2]: 6.3 µM [middle of 6 runs]

C=CC(=O)N1CCN(c2nc(OCC3CCCN3C)nc3c2CCN(c2cccc4cccc(C)c24)C3)CC1CC#N (stereo not drawn)
IC50 [1]: 1.47 µM [middle of 5 runs] | IC50 [2]: 1.33 µM [middle of 5 runs]

CC(=O)Nc1cccc(-n2c(=O)n(C3CC3)c(=O)c3c(Nc4ccc(I)cc4F)n(C)c(=O)c(C)c32)c1
viability, T/C (compound 0.0001 µM): 31.7% [middle of 5 runs] | viability, T/C (compound 0.000316 µM): 22.2% [middle of 5 runs] | viability, T/C (compound 0.001 µM): 18.4% [middle of 5 runs] | viability, T/C (compound 0.00316 µM): 13.8% [middle of 5 runs] | viability, T/C (compound 0.01 µM): 9.89% [middle of 5 runs] | viability, T/C (compound 0.0316 µM): 7.25% [middle of 5 runs] | IC50 (curve of compound): < 0.1 nM

CC(=O)OC12COC1CC(O)C1(C)C(=O)C(O)C3=C(C)C(OC(=O)C(O)C(NC(=O)OC(C)(C)C)c4ccccc4)CC(O)(C(OC(=O)c4ccccc4)C21)C3(C)C (stereo not drawn)
viability, T/C (compound 0.01 µM): 15% [middle of 5 runs] | viability, T/C (compound 0.0316 µM): 17.7% [middle of 5 runs] | viability, T/C (compound 0.1 µM): 19.3% [middle of 5 runs] | viability, T/C (compound 0.316 µM): 22.6% [middle of 5 runs] | viability, T/C (compound 1 µM): 32.3% [middle of 4 runs] | viability, T/C (compound 3.16 µM): 25.7% [middle of 5 runs] | IC50 (curve of compound): < 10 nM

CC(C)NCC(C(=O)N1CCN(c2ncnc3c2C(C)CC3O)CC1)c1ccc(Cl)cc1 (stereo not drawn)
viability, T/C (compound 0.0316 µM): 93.4% [middle of 5 runs] | viability, T/C (compound 0.1 µM): 77.8% [middle of 5 runs] | viability, T/C (compound 0.316 µM): 49.3% [middle of 5 runs] | viability, T/C (compound 1 µM): 27.4% [middle of 5 runs] | viability, T/C (compound 3.16 µM): 17.1% [middle of 5 runs] | viability, T/C (compound 10 µM): 7.52% [middle of 5 runs] | IC50 (curve of compound): 334 nM [middle of 5 runs]

CC(C)n1nc(-c2ccc3oc(N)nc3c2)c2c(N)ncnc21
viability, T/C (compound 0.000316 µM): 87.2% [middle of 5 runs] | viability, T/C (compound 0.001 µM): 47.6% [middle of 5 runs] | viability, T/C (compound 0.00316 µM): 17.1% [middle of 5 runs] | viability, T/C (compound 0.01 µM): 10.7% [middle of 5 runs] | viability, T/C (compound 0.0316 µM): 9.1% [middle of 5 runs] | viability, T/C (compound 0.1 µM): 8.83% [middle of 5 runs] | IC50 (curve of compound): 0.92 nM [middle of 5 runs]

CC1(C)CCC(CN2CCN(c3ccc(C(=O)NS(=O)(=O)c4ccc(NCC5CCOCC5)c([N+](=O)[O-])c4)c(Oc4cnc5[nH]ccc5c4)c3)CC2)=C(c2ccc(Cl)cc2)C1
viability, T/C (compound 0.0316 µM): 101% [middle of 5 runs] | viability, T/C (compound 0.1 µM): 97.5% [middle of 5 runs] | viability, T/C (compound 0.316 µM): 91.1% [middle of 5 runs] | viability, T/C (compound 1 µM): 88.3% [middle of 5 runs] | viability, T/C (compound 3.16 µM): 21.2% [middle of 5 runs] | viability, T/C (compound 10 µM): 5.14% [middle of 5 runs] | IC50 (curve of compound): 1.89 µM [middle of 5 runs]

CC1COCCN1c1cc(-c2ccnn2C)c2ccnc(-c3ccn[nH]3)c2n1 (stereo not drawn)
viability, T/C (compound 0.1 µM): 10.9% [middle of 5 runs] | viability, T/C (compound 0.316 µM): 6.73% [middle of 5 runs] | viability, T/C (compound 1 µM): 5.15% [middle of 5 runs] | viability, T/C (compound 3.16 µM): 4.48% [middle of 5 runs]

CC1OCC2(CCN(c3cnc(Sc4ccnc(N)c4Cl)c(N)n3)CC2)C1N (stereo not drawn)
viability, T/C (compound 0.0316 µM): 102% (2×) and 80.3% | IC50 (compound alone, run of 07/12/2021): 10000 nM and > 10000 nM | IC50 [1]: > 10000 nM | IC50 [2]: > 10000 nM | IC50 (curve of compound): > 10000 nM

CCN1CCN(Cc2ccc(Nc3ncc(F)c(-c4cc(F)c5nc(C)n(C(C)C)c5c4)n3)nc2)CC1
viability, T/C (compound 0.00316 µM): 60.9% [middle of 5 runs] | viability, T/C (compound 0.01 µM): 35.7% [middle of 5 runs] | viability, T/C (compound 0.0316 µM): 19.6% [middle of 5 runs] | viability, T/C (compound 0.1 µM): 16.7% [middle of 5 runs] | viability, T/C (compound 0.316 µM): 14.5% [middle of 5 runs] | viability, T/C (compound 1 µM): 5.13% [middle of 5 runs]

CCNC(=O)CC1N=C(c2ccc(Cl)cc2)c2cc(OC)ccc2-n2c(C)nnc21 (stereo not drawn)
viability, T/C (compound 0.1 µM): 57.3% [middle of 5 runs] | viability, T/C (compound 0.316 µM): 30.4% [middle of 5 runs] | viability, T/C (compound 1 µM): 8.84% [middle of 5 runs] | viability, T/C (compound 3.16 µM): 2.06% [middle of 5 runs] | viability, T/C (compound 10 µM): 1.07% [middle of 5 runs] | IC50 (curve of compound): 138 nM [middle of 5 runs]

CN(C)C/C=C/C(=O)Nc1cc2c(Nc3ccc(F)c(Cl)c3)ncnc2cc1O[C@H]1CCOC1
viability, T/C (compound 0.001 µM): 94.4% [middle of 5 runs] | viability, T/C (compound 0.0316 µM): 99% [middle of 5 runs] | viability, T/C (compound 0.1 µM): 97.2% [middle of 5 runs] | IC50 (curve of compound): > 100 nM

CNCc1ccccc1-c1csc(C(C)Nc2nc(C)nc3cc(OC)c(OC)cc23)c1 (stereo not drawn)
viability, T/C (compound 10 µM): 0.1% [middle of 12 runs] | IC50 [1]: 1.6 µM [middle of 5 runs] | IC50 [2]: 1.09 µM [middle of 6 runs]

COC(=O)c1ccc2c(C(=Nc3ccc(N(C)C(=O)CN4CCN(C)CC4)cc3)c3ccccc3)c(O)[nH]c2c1
viability, T/C (compound 3.16 µM): 24.1% [middle of 5 runs] | viability, T/C (compound 10 µM): 16.1% [middle of 5 runs]

COc1cc(Nc2ncc3c(n2)-c2ccc(Cl)cc2C(c2c(F)cccc2OC)=NC3)ccc1C(=O)O
viability, T/C (compound 0.1 µM): 27.8% [middle of 5 runs] | viability, T/C (compound 0.316 µM): 33.1% [middle of 5 runs] | viability, T/C (compound 1 µM): 35.6% [middle of 5 runs] | viability, T/C (compound 3.16 µM): 33.9% [middle of 5 runs] | viability, T/C (compound 10 µM): 24.8% [middle of 5 runs] | IC50 (curve of compound): < 31.6 nM and 43.2 nM

COc1cc(OC)cc(N(CCNC(C)C)c2ccc3ncc(-c4cnn(C)c4)nc3c2)c1
viability, T/C (compound 0.0316 µM): 99% [middle of 4 runs] | viability, T/C (compound 0.1 µM): 102% [middle of 4 runs] | viability, T/C (compound 1 µM): 98.2% [middle of 4 runs] | viability, T/C (compound 3.16 µM): 38.9% [middle of 4 runs] | viability, T/C (compound 10 µM): 0.57% [middle of 4 runs] | IC50 (curve of compound): 2.53 µM [middle of 4 runs]

COc1cc2nccc(Oc3ccc(NC(=O)C4(C(=O)Nc5ccc(F)cc5)CC4)cc3)c2cc1OC
viability, T/C (compound 0.0316 µM): 102% [middle of 5 runs] | viability, T/C (compound 0.1 µM): 98.8% [middle of 5 runs] | viability, T/C (compound 0.316 µM): 94.4% [middle of 5 runs] | viability, T/C (compound 3.16 µM): 14.4% [middle of 5 runs] | IC50 (curve of compound): 1.76 µM [middle of 5 runs]

Cn1nccc1Nc1nccc(-c2cc3c(s2)C(C)(C)N(CCN2CCOCC2)C3=O)n1
viability, T/C (compound 0.0316 µM): 56.4% [middle of 5 runs] | viability, T/C (compound 0.1 µM): 40.2% [middle of 5 runs] | viability, T/C (compound 0.316 µM): 21.2% [middle of 5 runs] | viability, T/C (compound 1 µM): 14.3% [middle of 5 runs] | viability, T/C (compound 3.16 µM): 7.8% [middle of 5 runs] | viability, T/C (compound 10 µM): 5.9% [middle of 5 runs] | IC50 (curve of compound): 52.2 nM [middle of 5 runs]

Cn1ncnc1[C@H]1c2n[nH]c(=O)c3cc(F)cc(c23)N[C@@H]1c1ccc(F)cc1
viability, T/C (compound 0.000316 µM): 104% [middle of 5 runs] | viability, T/C (compound 0.001 µM): 96.9% [middle of 5 runs] | viability, T/C (compound 0.00316 µM): 96.4% [middle of 5 runs] | viability, T/C (compound 0.01 µM): 94.2% [middle of 5 runs] | viability, T/C (compound 0.0316 µM): 86.2% [middle of 5 runs] | viability, T/C (compound 0.1 µM): 78.7% [middle of 5 runs] | IC50 (curve of compound): > 100 nM

O=C(c1cc(Cc2n[nH]c(=O)c3ccccc23)ccc1F)N1CCN(C(=O)C2CC2)CC1
viability, T/C (compound 0.0316 µM): 91.8% [middle of 5 runs] | viability, T/C (compound 0.1 µM): 94.4% [middle of 5 runs]
